In one experiment the target is Carbonic anhydrase 1 (Homo sapiens, UniProt P00915). In words: Inhibition of human recombinant carbonic anhydrase-1 preincubated for 6 hrs by stopped-flow CO2 hydration assay.
In the next experiment the target is Carbonic anhydrase 9 (Homo sapiens, UniProt Q16790). In words: Inhibition of human recombinant carbonic anhydrase-9 preincubated for 6 hrs by stopped-flow CO2 hydration assay.
Another experiment concerns the target Carbonic anhydrase 2 (Homo sapiens, UniProt P00918). Briefly: Inhibition of human recombinant carbonic anhydrase-2 preincubated for 6 hrs by stopped-flow CO2 hydration assay.
The target of the next experiment is Carbonic anhydrase 12 (Homo sapiens, UniProt O43570). Briefly: Inhibition of human recombinant carbonic anhydrase-12 preincubated for 6 hrs by stopped-flow CO2 hydration assay.
Chain of Carbonic anhydrase 12 (O43570 whole entry): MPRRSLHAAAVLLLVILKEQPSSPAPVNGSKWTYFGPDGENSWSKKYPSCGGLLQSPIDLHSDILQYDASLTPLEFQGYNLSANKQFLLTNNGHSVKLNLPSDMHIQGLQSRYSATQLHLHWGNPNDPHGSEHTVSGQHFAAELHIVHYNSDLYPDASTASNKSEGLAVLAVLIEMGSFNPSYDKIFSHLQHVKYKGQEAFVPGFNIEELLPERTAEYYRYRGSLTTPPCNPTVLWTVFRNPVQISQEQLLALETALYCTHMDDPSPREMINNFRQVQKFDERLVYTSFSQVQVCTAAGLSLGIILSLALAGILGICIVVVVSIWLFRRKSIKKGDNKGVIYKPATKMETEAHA

Bounds are passed on as bounds.

What is called Ki is the dissociation constant of the complex between target and ligand, obtained from inhibition or displacement.

Chain of Carbonic anhydrase 1 (P00915 whole entry): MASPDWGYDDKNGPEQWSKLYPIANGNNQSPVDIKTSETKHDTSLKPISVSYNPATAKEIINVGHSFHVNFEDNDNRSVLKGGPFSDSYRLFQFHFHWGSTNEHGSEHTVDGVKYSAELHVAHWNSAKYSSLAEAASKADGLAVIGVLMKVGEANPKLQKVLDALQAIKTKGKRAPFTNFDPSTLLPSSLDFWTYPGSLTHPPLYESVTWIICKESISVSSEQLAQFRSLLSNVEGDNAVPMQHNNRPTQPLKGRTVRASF

For `Cc1cc(=O)oc2cc(NC(=O)c3ccccc3NC(=O)c3ccccc3)ccc12`, the inhibition constant Ki on Carbonic anhydrase 1 is over 500000 nM; on Carbonic anhydrase 9, 21.6 nM; at Carbonic anhydrase 2, over 500000 nM.

Take `O=c1[nH]cnc2ccccc12` [QUINAZOLINONE]: the Ki was 15700 nM at Carbonic anhydrase 9, 10500 nM at Carbonic anhydrase 12 and over 500000 nM at Carbonic anhydrase 2.

Consider `Cc1cc(=O)oc2cc(NC(=O)c3ccccc3NC(=O)c3ccc(F)cc3)ccc12`, for which the Ki at Carbonic anhydrase 1 was over 500000 nM; on Carbonic anhydrase 9, 15.1 nM; on Carbonic anhydrase 2, over 500000 nM.

Take `CC1=Nc2ccccc2S(=O)(=O)N1`: the Ki at Carbonic anhydrase 1 stood at 13800 nM; on Carbonic anhydrase 9, 349 nM; on Carbonic anhydrase 2 it was 642 nM.

Consider `O=S1(=O)NC=Nc2ccccc21`, for which the values for the Ki on Carbonic anhydrase 1, on Carbonic anhydrase 9 and at Carbonic anhydrase 2 were 12600 nM, 116 nM and 378 nM, respectively.

Take `Cc1cc(=O)oc2cc(NC(=O)c3ccccc3NC(=O)c3ccc(Cl)cc3)ccc12`: the Ki at Carbonic anhydrase 1 is over 500000 nM; on Carbonic anhydrase 9, 18.4 nM; at Carbonic anhydrase 2, over 500000 nM.

With `O=C1Nc2ccccc2S(=O)(=O)N1`, the Ki at Carbonic anhydrase 1 came out at 783 nM; at Carbonic anhydrase 9 it was 87.4 nM; on Carbonic anhydrase 2, 127 nM.

Turning to `O=c1[nH]c(=O)c2cc([N+](=O)[O-])ccc2[nH]1`, the Ki is over 500000 nM at Carbonic anhydrase 1, 5470 nM at Carbonic anhydrase 9 and over 500000 nM at Carbonic anhydrase 2.

On to `O=C(Nc1ccccc1C(=O)Nc1ccc2c(C(F)(F)F)cc(=O)oc2c1)c1ccccc1`, for which the values for the Ki at Carbonic anhydrase 1, on Carbonic anhydrase 9 and on Carbonic anhydrase 2 were over 500000 nM, 10.9 nM and over 500000 nM, respectively.

`O=C(Nc1ccccc1C(=O)Nc1ccc2c(C(F)(F)F)cc(=O)oc2c1)c1ccc(F)cc1`: the Ki is over 500000 nM on Carbonic anhydrase 1, 20 nM at Carbonic anhydrase 9 and over 500000 nM at Carbonic anhydrase 2.

As to `O=C(Nc1ccccc1C(=O)Nc1ccc2c(C(F)(F)F)cc(=O)oc2c1)c1ccc(Cl)cc1`, the values for the Ki at Carbonic anhydrase 1, on Carbonic anhydrase 9 and on Carbonic anhydrase 2 were over 500000 nM, 24.5 nM and over 500000 nM, respectively.
